“And” between values parts separate entries of the source, which are not always exact repeats. Equal entries are not always repeated.
What was measured:
[1] = 313.15 K; Liquid; Closed cell (Static) method
[2] = excess molar enthalpy (molar enthalpy of mixing); xn = mol fraction of the nth substance listed; conditions: 101 kPa, Liquid, Flow calorimetry

Cc1ccc(C)c(C)c1 [1,2,4-trimethylbenzene]
Conditions | vapor or sublimation pressure [kPa]
[1] | 0.73

Cc1ccc(C)c(C)c1 [1,2,4-trimethylbenzene] + CCCC(C)O
excess molar enthalpy [kcal/mol], [2]
Conditions | 298.15 K | 313.15 K
x2 = 0 | 0 | 0
x2 = 0.0499 | 0.144 | 0.149
x2 = 0.0987 | – | 0.237
x2 = 0.1012 | 0.218 | –
x2 = 0.149 | 0.264 | 0.295
x2 = 0.1982 | – | 0.334
x2 = 0.2006 | 0.297 | –
x2 = 0.2487 | 0.322 | –
x2 = 0.2509 | – | 0.361
x2 = 0.298 | 0.338 | –
x2 = 0.3002 | – | 0.382
x2 = 0.3485 | 0.35 | –
x2 = 0.3507 | – | 0.392
x2 = 0.3979 | 0.358 | 0.399
x2 = 0.4482 | 0.36 | –
x2 = 0.4504 | – | 0.4
x2 = 0.4996 | 0.356 | 0.397
x2 = 0.5476 | – | 0.386
x2 = 0.5496 | 0.349 | –
x2 = 0.6005 | – | 0.369
x2 = 0.6006 | 0.334 | –
x2 = 0.6482 | – | 0.346
x2 = 0.6502 | 0.313 | –
x2 = 0.6987 | – | 0.318
x2 = 0.6988 | 0.289 | –
x2 = 0.7479 | – | 0.285
x2 = 0.748 | 0.259 | –
x2 = 0.7978 | – | 0.243
x2 = 0.7979 | 0.22 | –
x2 = 0.8481 | – | 0.194
x2 = 0.8482 | 0.176 | –
x2 = 0.8989 | – | 0.138
x2 = 0.899 | 0.124 | –
x2 = 0.9501 | – | 0.0718
x2 = 0.9502 | 0.0647 | –

Cc1ccc(C)c(C)c1 [1,2,4-trimethylbenzene] + CCCCCO
excess molar enthalpy [kcal/mol], [2]
Conditions | 298.15 K | 313.15 K
x2 = 0 | 0 | 0
x2 = 0.0503 | 0.124 | 0.139
x2 = 0.0995 | 0.175 | 0.207
x2 = 0.15 | 0.204 | 0.248
x2 = 0.1995 | 0.22 | 0.273
x2 = 0.2501 | 0.233 | –
x2 = 0.2502 | – | 0.289
x2 = 0.2997 | 0.241 | 0.297
x2 = 0.3481 | 0.243 | 0.3
x2 = 0.3998 | 0.24 | 0.3
x2 = 0.4481 | 0.234 | –
x2 = 0.4482 | – | 0.295
x2 = 0.4995 | 0.223 | 0.283
x2 = 0.5495 | 0.21 | –
x2 = 0.5496 | – | 0.268
x2 = 0.5985 | 0.194 | –
x2 = 0.5986 | – | 0.25
x2 = 0.6482 | 0.175 | 0.227
x2 = 0.6985 | 0.153 | –
x2 = 0.6986 | – | 0.203
x2 = 0.7494 | 0.129 | –
x2 = 0.7495 | – | 0.173
x2 = 0.7991 | 0.104 | 0.142
x2 = 0.8492 | 0.0777 | 0.108
x2 = 0.8997 | 0.0527 | 0.0729
x2 = 0.9505 | 0.0253 | 0.0354

C=CCCCC [hex-1-ene]
Conditions | vapor or sublimation pressure
[1] | 44.91 kPa and 44.95 kPa

C=CCCCC [hex-1-ene] + CCCC(C)O
[2], x2 = 0
Conditions | excess molar enthalpy [kcal/mol]
298.15 K | 0
313.15 K | 0

C=CCCCC [hex-1-ene] + CCCCCO
excess molar enthalpy [kcal/mol], [2]
Conditions | 298.15 K | 313.15 K
x2 = 0 | 0 | 0
x2 = 0.0506 | – | 0.121
x2 = 0.0507 | 0.095 | –
x2 = 0.1005 | – | 0.159
x2 = 0.1006 | 0.119 | –
x2 = 0.152 | – | 0.179
x2 = 0.1522 | 0.134 | –
x2 = 0.2027 | – | 0.192
x2 = 0.203 | 0.143 | –
x2 = 0.2528 | – | 0.195
x2 = 0.2531 | 0.148 | –
x2 = 0.3021 | – | 0.198
x2 = 0.3022 | 0.151 | –
x2 = 0.3526 | – | 0.193
x2 = 0.353 | 0.15 | –
x2 = 0.4026 | – | 0.19
x2 = 0.403 | 0.146 | –
x2 = 0.4519 | – | 0.183
x2 = 0.4523 | 0.138 | –
x2 = 0.5026 | – | 0.172
x2 = 0.503 | 0.129 | –
x2 = 0.5524 | – | 0.159
x2 = 0.5529 | 0.118 | –
x2 = 0.6035 | – | 0.144
x2 = 0.604 | 0.106 | –
x2 = 0.6519 | – | 0.127
x2 = 0.6523 | 0.0912 | –
x2 = 0.7019 | 0.0776 | 0.109
x2 = 0.7526 | 0.0629 | 0.0888
x2 = 0.8008 | 0.0478 | –
x2 = 0.8025 | – | 0.0681
x2 = 0.8482 | 0.0348 | –
x2 = 0.8517 | – | 0.0505
x2 = 0.9019 | – | 0.0316
x2 = 0.902 | 0.0208 | –
x2 = 0.9513 | 0.00908 | 0.0139

CCCCCO [pentan-1-ol]
Conditions | vapor or sublimation pressure
[1] | 0.913 kPa and 0.918 kPa

CCCCCO [pentan-1-ol] + C=CCCCC
[2], x1 = 1
Conditions | excess molar enthalpy [kcal/mol]
298.15 K | 0
313.15 K | 0

CCCCCO [pentan-1-ol] + Cc1ccc(C)c(C)c1
[2], x1 = 1
Conditions | excess molar enthalpy [kcal/mol]
298.15 K | 0
313.15 K | 0

CCCC(C)O (configuration not stated) [pentan-2-ol]
Conditions | vapor or sublimation pressure
[1] | 2.281 kPa and 2.268 kPa

CCCC(C)O (configuration not stated) [pentan-2-ol] + C=CCCCC
excess molar enthalpy [kcal/mol], [2]
Conditions | 298.15 K | 313.15 K
x1 = 0.05 | – | 0.141
x1 = 0.0503 | 0.117 | –
x1 = 0.0999 | 0.158 | 0.196
x1 = 0.1511 | 0.183 | –
x1 = 0.1512 | – | 0.229
x1 = 0.2015 | 0.202 | –
x1 = 0.2017 | – | 0.254
x1 = 0.2513 | 0.216 | –
x1 = 0.2516 | – | 0.266
x1 = 0.3027 | 0.225 | –
x1 = 0.3028 | – | 0.277
x1 = 0.3512 | 0.23 | –
x1 = 0.3513 | – | 0.282
x1 = 0.4032 | 0.234 | –
x1 = 0.4034 | – | 0.282
x1 = 0.4509 | – | 0.278
x1 = 0.4525 | 0.234 | –
x1 = 0.5014 | – | 0.271
x1 = 0.503 | 0.23 | –
x1 = 0.5513 | – | 0.262
x1 = 0.5529 | 0.222 | –
x1 = 0.6005 | – | 0.248
x1 = 0.6018 | 0.21 | –
x1 = 0.6523 | 0.194 | 0.227
x1 = 0.702 | 0.175 | 0.205
x1 = 0.751 | 0.151 | 0.18
x1 = 0.8004 | 0.123 | –
x1 = 0.8012 | – | 0.149
x1 = 0.85 | 0.0935 | –
x1 = 0.8506 | – | 0.115
x1 = 0.9007 | 0.0574 | –
x1 = 0.9012 | – | 0.0742
x1 = 0.9507 | 0.0268 | –
x1 = 0.9509 | – | 0.0371
x1 = 1 | 0 | 0

CCCC(C)O (configuration not stated) [pentan-2-ol] + Cc1ccc(C)c(C)c1
[2], x1 = 1
Conditions | excess molar enthalpy [kcal/mol]
298.15 K | 0
313.15 K | 0
